Tests used:
3T3-L1 adipocytes = assay: Fatty acid oxidation (palmitate-induced O2 consumption, Seahorse XF24) in adipocytes; type: cell-based, mouse; settings: 24-hour Met-Leu treatment
C2C12 myotubes [1] = settings: Mooney et al. 2008; cited from earlier work
C2C12 myotubes [2] = assay: Glucose utilization (extracellular acidification response to glucose) in myotubes; type: cell-based, mouse
[3] = system: adipocytes (3T3-L1) and myotubes (C2C12); assay: Glucose utilization (extracellular acidification), cell type not stated; type: cell-based, mouse; settings: compound alone
Description: In the absence of a fatty acid source and oxidative metabolism, glycolysis and subsequent lactate production results in extracellular acidification, which was also measured using a Seahorse Bioscience XF24 analyzer. Cells were prepared and equilibrated similar to the methods described above for fatty acid oxidation, with the exclusion of carnitine from the medium. Following instrument equilibration and three baseline measurements, glucose was injected to a final concentration of 10 mM in each well. Measurements were taken as described above utilizing the sensors for extracellular acidification rather than O2 consumption. Insulin (final concentration of 5 nM) was added to some wells as a positive control. Data for each sample were normalized to the pre-glucose injection baseline for that sample and expressed as % change from that baseline. The area under of the curve of extracellular acidification change from baseline for each sample was then calculated and used for subsequent analysis.
In the absence of a fatty acid source and oxidative metabolism, glycolysis and subsequent lactate production results in extracellular acidification, which was also measured using a Seahorse Bioscience XF24 analyzer. […] Data for each sample were normalized to the pre-glucose injection baseline for that sample and expressed as % change from that baseline. […]

[4] = system: LDL receptor knockout (Ldlr−/−) mice; assay: Ldlr−/− mice on atherogenic diet with leucine/metformin/nicotinic acid (Example 15); type: in vivo, Mus musculus
Sirt1 = settings: C2C12 myotubes
AMPK = settings: 3T3-L1 adipocytes
[5] = system: LDL receptor knockout mice; assay: LDL receptor knockout mice on western diet: plasma lipids, atherosclerosis, macrophage infiltration (Example 7); type: in vivo, mouse
From the text: LDL receptor knockout (LDLRKO) mice were obtained from Jackson Laboratories (Bar Harbor, Me.), and housed in groups under room temperature in a humidity-controlled environment with a regular light and dark cycle. The mice were provided free access to an atherogenic western diet (WD) containing 0.21% cholesterol (by weight) and 40% calories from fat and water for 4 weeks prior to treatment. For treatment, the mice were given (a) the WD diet alone, (b) WD and 24 g of leucine/kg diet, (c) WD and 24 g of leucine/kg diet and 50 mg nicotinic acid/kg diet, (d) WD and 24 g of leucine/kg diet and 250 mg nicotinic acid/kg diet, or (e) WD and 1000 mg nicotinic acid/kg diet; this is approximately equivalent to a low therapeutic dose of nicotinic acid in hypercholesterolemic humans (˜1,500 mg/day). The treatments were administered for eight weeks continuously.
Blood samples of the mice in all groups were obtained from tails of the mice at following four and eight weeks of administration. The serum/plasma levels of triglyceride, total cholesterol and cholesterol esters were measured. Following treatment, food was removed for four hours and the animals were euthanized.
Blood was collected into EDTA-coated tubes to analyze plasma lipid and cholesterol profiles. Plasma total cholesterol (TC, Pointe Scientific, Canton, Mich.), free cholesterol (FC, Wako, Richmond, Va.) and triglyceride (TG, Wako, Richmond, Va.) concentrations were measured using enzymatic assays according to manufacturer's instructions. Cholesterol ester (CE) was calculated as the difference between TC and FC.
To assess atherosclerosis, the circulatory system was perfused following euthanasia with phosphate-buffered saline (PBS) before removing the heart and aorta. The upper one-third of the heart was dissected and embedded in Optimal Cutting Temperature Compound (Sakura Tissue-Tek, Torrance, Calif.), frozen, and stored at −80° C. Blocks were serially cut at 8 μm intervals and stained with hematoxylin and 0.5% Oil Red O (Sigma-Aldrich) to evaluate aortic sinus atherosclerotic intimal area. Atherosclerotic lesion area and Oil Red O positive area were quantified using Image-Pro Plus software (Media Cybernetics, Bethesda, Md.). Whole aorta (from sinotubular junction to iliac bifurcate) was dissected and fixed in 10% formalin, and the adventitia was cleaned. Aortas were opened along the longitudinal axis and pinned onto black silicon elastomer (Rubber-Cal, Santa Ana, Calif.) for the quantification of atherosclerotic lesion area. The percentage of total aortic surface covered with atherosclerotic lesions was quantified by Image-Pro Plus software (Media Cybernetics, Bethesda, Md.) and used to determine the total lesion area.
To assess macrophage infiltration, Sections of aortic sinus were immuno-stained with rat monoclonal antibody against macrophage-specific CD68 (Clone FA11, 1:75, AbD Serotec, Raleigh, N.C.) followed by staining with alkaline phosphatase-conjugated mouse anti-rat (for CD68, 1:50) secondary antibodies (Jackson ImmunoResearch laboratories, West Grove, Pa.). Control slides contain no primary antibody. The CD68-positive areas were analyzed using Image-Pro Plus software (Media Cybernetics, Bethesda, Md.).

[6] = system: patients pre-diagnosed with hyperlipidemia; assay: Planned study in patients: atherosclerotic plaque size by quantitative coronary angiography (Example 9); type: in vivo, human; settings: oral twice a day, 3 years; nicotinic acid 50 mg, leucine 550 mg, resveratrol 50 mg
Description: Patients that experience acute chest pain and are pre-diagnosed with hyperlipidemia are admitted for the randomized and double blind study. […] The treatments are administered orally twice a day, for 3 years continuously. The size of atherosclerotic plaque is measured at day 0, months 6, 12, 18, 24, 30 and 36 by quantitative coronary angiography.

[7] = system: LDL receptor knockout (LDLRKO) mice; assay: Planned study in LDL receptor knockout mice with leucine/metformin/nicotinic acid (Example 13); type: in vivo, mouse
Caenorhabditis elegans = assay: Lifespan of C. elegans (Example 10); type: in vivo; settings: basal conditions; leucine 0.5 mM, nicotinic acid 10 nM
Description: Eggs were hatched on a starved plate overnight. […] All treatments were added with the indicated concentrations to E. coli the agar plates. […] The worms were maintained at 20° C. throughout the duration of the study. Worms were transferred to new plates daily to eliminate progeny. […] The study was continued until the last animal was dead. Data were analyzed via Kaplan-Meier survival curves using Prism 6 (GraphPad Software) and statistical significance was determined by the Log-rank (Mantel-Cox) test.

[8] = system: patients pre-diagnosed with hyperlipidemia; assay: Planned study in hyperlipidemic patients: lipids and cutaneous vasodilation (Example 8); type: in vivo, human; settings: for triglyceride, LDL, cholesterol and HDL levels compared to day 0: oral twice a day, 60 days
Description: Patients that are pre-diagnosed with hyperlipidemia are admitted for the randomized and double blind study. […] The treatments are administered orally twice a day, for 60 days continuously. […] The serum/plasma levels of triglyceride, cholesterol, LDL and HDL are measured. Cutaneous vasodilation is measured by laser-Doppler flowmeter and the discomfort level described by the patients.

[9] = 24 hours, nicotinic acid 10 nM, leucine 0.5 mM, resveratrol 200 nM
[10] = nicotinic acid 50 mg, leucine 550 mg, resveratrol 50 mg

SMILES: c1cc(-c2cnn3cc(-c4ccc(OCCN5CCCCC5)cc4)cnc23)ccn1 [Compound C]
- effect of the AMPK inhibitor on the Met-Leu increase in palmitate-induced fatty acid oxidation (3T3-L1 adipocytes): completely blocked this increase

SMILES: CC(C)=CCN=C(N)N [galegine]
- concentration below which published literature shows no effect (C2C12 myotubes [1]): < 100 µM
- increase in insulin-stimulated glucose utilization (C2C12 myotubes [2]; C2C12 myotubes, 5 nM insulin, galegine 5 μM, leucine 0.5 mM): no effect
- concentrations with no independent effect on basal or insulin-stimulated glucose utilization (dose response curves) (C2C12 myotubes [2]; galegine alone): up to 500 μM

SMILES: N=C(N)N [Guanidine]
- no-effect threshold for stimulation of glucose utilization [3]: 0.1 to 1 µM

SMILES: O=C(O)c1cccnc1 [nicotinic acid]
- fasting blood glucose ([4]; 8 weeks, nicotinic acid 1000 mg/kg diet, or leucine 24 g/kg + metformin 0.5 g/kg + nicotinic acid 50 mg/kg diet, vs atherogenic diet): no change
- plasma LDL cholesterol ([4]; Day 56, doses as E126): significantly lower
- plasma cholesterol ([4]; Day 56, doses as E126): significantly lower
- plasma triglycerides ([4]; Day 56, doses as E126): significantly lower
- Oil Red O staining area in the heart and aorta ([4]; doses as E126): significantly less Oil Red O staining area
- atherosclerosis (histological images of heart) ([4]; doses as E126): reduced
- fasting plasma insulin ([4]; doses as E126): no change
- concentrations that alone exert no effect (dose-response study) (Sirt1): < 100 nM
- increase in Sirt1 levels (Sirt1; [9]): did not have a significant effect
- concentrations that alone exert no effect (dose-response study) (AMPK): < 100 nM
- AMPK activation (P-AMPK/AMPK) (AMPK; [9]): no significant effect
- decrease in aortic macrophage infiltration (CD68 positive area) ([5]; eight weeks, doses as E77): ~50%
- decrease in atherosclerotic lesion size (lesion and lipid area) ([5]; eight weeks, nicotinic acid 1,000 mg/kg diet, leucine 24 g/kg diet, or leucine + nicotinic acid 50 mg/kg diet, vs western diet alone): ~50%
- decrease in plasma cholesterol esters ([5]; four weeks, doses as E73): 28%
- decrease in plasma triglycerides ([5]; four weeks, doses as E73): 32%
- decrease in plasma total cholesterol ([5]; four weeks, western diet + nicotinic acid 1,000 mg/kg diet, leucine 24 g/kg diet, or leucine + nicotinic acid 50 or 250 mg/kg diet): 20%
- size of atherosclerotic plaque compared to day 0 [6]: similar, without statistically significant difference
- plasma insulin and HOMAIR index ([7]; diet doses: metformin 1.5 g/kg alone or 0.25 g/kg in combinations, nicotinic acid 1000 mg/kg alone or 50 mg/kg in combinations, leucine 24 g/kg): high plasma insulin and HOMAIR index
- atherosclerotic lesion size and aortic macrophage infiltration relative to western diet alone ([7]; doses as E112): decrease atherosclerotic lesion size and decrease in aortic macrophage infiltration
- effect on lifespan (Caenorhabditis elegans): no independent effect
- cutaneous vasodilation compared to 1500 mg nicotinic acid [8, 10]: lower
- cutaneous vasodilation compared to all other groups ([8]; nicotinic acid 1500 mg alone): significant higher cutaneous vasodilation
- triglyceride, LDL, cholesterol and HDL levels compared to day 0 [8, 10]: similar, without statistically significant difference
- triglyceride, LDL, cholesterol and HDL levels compared to day 0 ([8]; nicotinic acid 1500 mg alone): significantly lower triglyceride, LDL and cholesterol levels, and significantly higher HDL level
